We go through one compound from US20070281960A1, “Anti-Histaminic Composition” (priority 2004, published 2007).

For one data set, the system named is human mast cells. The conditions noted are these: in vitro; cited from earlier work.
Data set [1] can be described thus: Compatibility of desloratadine with common excipients. It is filed as physicochemical. Particulars: lactose, magnesium stearate, microcrystalline stearate; degrades and changes to a pink colour. An excerpt: Therefore, extreme caution needs to be taken when formulating desloratadine with various excipients. […] This decomposition is further accelerated under high temperature and humid conditions.

In the case of `Clc1ccc2c(c1)CCc1cccnc1C2=C1CCNCC1` [Desloratadine, 8-chloro-6,11-dihydro-11-(4-piperidylidene)-5-H-benzo [5,6] cyclohepta [1,2-b] pyridine], in the data set on human mast cells, the “histamine release from human mast cells” value is “inhibits histamine release”. Further, the “compatibility with common excipients” value in data set [1] is “incompatible”.
